For 9 molecules, Ki results are on record in patent US20250026765A1, “SPIROHETEROCYCLE DERIVATIVE HAVING SEROTONIN RECEPTOR BINDING ACTIVITY” (Shionogi & Co., Ltd., priority 2021, published 2025).

The assay addresses human recombinant 5-HT2A receptor (Homo sapiens (Human), UniProt P28223). As to the kind of experiment: 5-HT2A receptor binding inhibition test ([3H]-Ketanserin). To be noted: Jump-In HEK cell membrane, 25° C. 1.5 hours. The method in brief:
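Membranes from Jump-In HEK cells expressing the receptor were incubated with [3H]-ketanserin at about its Kd (from Scatchard analysis) in Tris-HCl pH 7.4 buffer for 1.5 h at 25° C, then filtered and counted. Non-specific binding was defined with 500 μmol/L serotonin, and Ki was taken from dose-response curves.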

Setting [1] is: read-out: human serotonin 5-HT2A receptor binding activity Ki.

Like-named read-outs stand apart in the source and are kept apart here.

Chain of human recombinant 5-HT2A receptor (P28223 whole entry): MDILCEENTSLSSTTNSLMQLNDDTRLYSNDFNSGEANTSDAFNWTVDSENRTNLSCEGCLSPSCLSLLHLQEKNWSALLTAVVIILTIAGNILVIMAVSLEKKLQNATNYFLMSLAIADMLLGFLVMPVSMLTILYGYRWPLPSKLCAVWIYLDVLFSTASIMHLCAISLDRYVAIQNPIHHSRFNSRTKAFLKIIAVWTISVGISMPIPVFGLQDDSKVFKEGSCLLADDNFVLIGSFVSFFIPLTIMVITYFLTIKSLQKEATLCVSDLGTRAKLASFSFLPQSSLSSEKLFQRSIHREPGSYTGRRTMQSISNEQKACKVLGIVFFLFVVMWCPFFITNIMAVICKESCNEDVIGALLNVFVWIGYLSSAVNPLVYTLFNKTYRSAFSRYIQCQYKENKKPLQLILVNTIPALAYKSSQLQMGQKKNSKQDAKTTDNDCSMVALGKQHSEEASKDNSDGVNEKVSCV

By Ki is commonly meant the equilibrium dissociation constant of an inhibitor or competing ligand from its target. With `Cc1nc(CN(Cc2ccc(OCC(C)C)cc2F)C2=NOC3(CCN(C)CC3)N2)co1` [Compound I-128], under setting [1], the Ki is 1.36 nM.
Still for that read-out and setting: then `CCCCOc1ccc(CN(Cc2coc(C)n2)C2=NOC3(CCN(C)CC3)N2)cc1F` [Compound I-115], with 0.703 nM; and `CCCCOc1ccc(CN(Cc2coc(CF)n2)C2=NOC3(CCN(C)CC3)N2)cc1` [Compound I-105], with 0.979 nM.
On to `CC(C)COc1ccc(CN(Cc2coc(CF)n2)C2=NOC3(CCN(C)CC3)N2)cc1` [Compound I-067], for which the Ki is below 10 nM (read-out: h-5-HT2A Ki) and 1.37 nM under setting [1].
In the case of `CCCCOc1ccc(CN(Cc2cnn(C)n2)C2=NOC3(CCN(C)CC3)N2)cc1` [Compound I-113], the Ki under setting [1] worked out at 1.2 nM.
Same read-out and setting: then `Cc1nc(CN(Cc2ccc(OCC(F)(F)C(F)(F)F)cc2F)C2=NOC3(CCN(C)CC3)N2)co1` [Compound I-104], with 1.56 nM.
The same measure, in the same setting: then `CCCCOc1ccc(CN(Cc2coc(C)n2)C2=NOC3(CCN(C)CC3)N2)c(F)c1` [Compound I-114], with 0.74 nM.
For `CCCCOc1ccc(CN(Cc2coc(C)n2)C2=NOC3(CCN(C)CC3)N2)cc1` [Compound I-080], the Ki (read-out: h-5-HT2A Ki) was below 10 nM and the Ki under setting [1] is 0.823 nM.
`Cc1nc(CN(Cc2ccc(CCC(F)(F)F)cc2)C2=NOC3(CCN(C)CC3)N2)co1` [Compound I-125]: the Ki under setting [1] is 1.26 nM.
